From US6080771A, “DC107 derivatives” (Kyowa Hakko Kogyo Co., Ltd., priority 1996, dated 2000)
Converted amounts (≈) assume the structure as drawn. Where two headings read alike, the source gives them in different places.

Legend:
[1] = test system: Sarcoma 180 mouse solid tumor; test: Antitumor activity against Sarcoma 180 mouse solid tumor; format: in vivo, male ddY mice; details: Sarcoma-180, iv, 168 h, single i.v., tumor volume on day 7 from transplant, read-out: T/C (tumor volume ratio treated/control)
Experimental: To a ddY mouse were intraperitoneally transplanted 5×10^6 sarcoma 180 cells. On the seventh day from the transplant, the cells were collected from the ascites, washed once with sterilized physiological saline, and then diluted with sterilized physiological saline to prepare a cell suspension having a concentration of 5×10^7 cells/mL. This suspension was transplanted in an amount of 0.01 mL to a subcutaneous part of the right axilla of each of male ddY mice each weighing 20±1 g.
A test compound was dissolved in physiological saline containing polyoxyethylene sorbitan monolaurate. At 24 hours after the tumor transplant, 0.2 mL of the solution was intravenously administered to the tail of each of a group of five mice.

[2] = test system: Enterococcus hirae ATCC 10541; test: Antimicrobial activity, agar dilution method (MIC), EH; details: pH 7
Experimental: Antimicrobial activity was determined by the agar dilution method using a culture medium (pH 7) prepared by dissolving 3 g of Bacto-Tryptone (manufactured by Difco, Co.), 3 g of meat extract, 1 g of yeast extract, 1 g of glucose, and 16 g of agar in 1 l of water.
EH: Enterococcus hirae ATCC 10541

[3] = test system: Staphylococcus aureus ATCC 6538P; test: Antimicrobial activity, agar dilution method (MIC), SA; format: cell-based; details: ATCC6538P, pH 7, read-out: MIC, SA
Source text: | SA: Staphylococcus aureus ATCC 6538P

[4] = test system: Klebisiella pneumoniae ATCC 10031; test: Antimicrobial activity, agar dilution method (MIC), KP; format: cell-based
Source text: | KP: Klebisiella pneumoniae ATCC 10031

Escherichia coli ATCC 26 = test: Antimicrobial activity, agar dilution method (MIC), EC; format: cell-based
Source text: | EC: Escherichia coli ATCC 26

[5] = test system: Bacillus substilis NO. 10707; test: Antimicrobial activity, agar dilution method (MIC), BS; format: cell-based
Source text: | BS: Bacillus substilis NO. 10707

HeLa S3 cells = test: HeLa S3 cell growth inhibition test (Neutral Red); format: cell-based; details: Homo sapiens, read-out: HeLa S3 Cell Growth Inhibition Activity, IC50
Experimental: In each well of a 96-well microtiter plate was placed 0.1 mL of HeLa S3 cells having a concentration of 8×10^3 cells/mL and prepared in an MEM culture medium containing 10% fetal bovine serum and 2 mM glutamine. After the cells were incubated overnight at 37° C. in a carbon dioxide incubator, a test compound suitably diluted with a medium was added to the wells in an amount of 0.05 mL for each well. The cells were incubated at 37° C. for 72 hours in a carbon dioxide incubator. After the culture supernatant was removed, 0.1 mL of a culture medium containing 0.02% Neutral Red was added to each well. The cells were then incubated at 37° C. for 1 hour in a carbon dioxide incubator to dye the cells. After the culture supernatant was removed, each residue was rinsed once with physiological saline and the pigment was extracted with 0.001N hydrochloric acid/30% ethanol. The absorbance at 550 nm of each extract was measured with a microplate reader. The drug concentration required for the 50% inhibition of cell growth, which is referred to as IC50, was calculated by comparing the absorbance for untreated cells with those for cells treated with the drug in known concentrations.

[6] = agar dilution, pH 7, read-out: MIC, KP
[7] = ATCC26, pH 7, read-out: MIC, EC
[8] = NO.10707, agar dilution, pH 7, read-out: MIC, BS
[9] = ATCC26, agar dilution, pH 7, read-out: MIC, EC

SMILES | response vs control in vivo at 8 mg/kg [1] [%] | MIC, EH [2] [µg/mL] | MIC ([3]; agar dilution) [µg/mL] | MIC [4, 6] [µg/mL] | MIC [5, 8] [µg/mL] | also measured
COCCOCC(=O)OCCOCCOCC(=O)OC1/C=C(\C)CCC2(CC(=O)NC(C)c3nc(cs3)/C=C\C=C\C1=O)[S+]([O-])SC(=O)C2(C)O (stereo not shown) [Compound 31] | 12 | 0.11 (≈ 0.142 µM) | 0.11 (≈ 0.142 µM) | 0.057 (≈ 0.0737 µM) | 0.057 (≈ 0.0737 µM) | MIC (Escherichia coli ATCC 26; [7]): 3.65 µg/mL (≈ 4.72 µM)
C/C1=C\C(OC(=O)COCCCO)C(=O)/C=C/C=C\c2csc(n2)C(C)NC(=O)CC2(CC1)[S+]([O-])SC(=O)C2(C)O (stereo not shown) [Compound 33] | – | 0.065 (≈ 0.104 µM) | 0.13 (≈ 0.207 µM) | 0.13 (≈ 0.207 µM) | 0.065 (≈ 0.104 µM) | response vs control in vivo at 2 mg/kg [1]: 36%; MIC (Escherichia coli ATCC 26; [9]): 1 µg/mL (≈ 1.6 µM)
C/C1=C\C(OC(=O)COCCCCO)C(=O)/C=C/C=C\c2csc(n2)C(C)NC(=O)CC2(CC1)[S+]([O-])SC(=O)C2(C)O (stereo not shown) [Compound 35] | – | 0.098 (≈ 0.153 µM) | 0.098 (≈ 0.153 µM) | 0.098 (≈ 0.153 µM) | 0.2 (≈ 0.312 µM) | response vs control in vivo at 4 mg/kg [1]: 22%; MIC (Escherichia coli ATCC 26; [7]): 1.6 µg/mL (≈ 2.5 µM)
C/C1=C\C(OC(=O)COCCOCCOCCOCCO)C(=O)/C=C/C=C\c2csc(n2)C(C)N2C(=O)CC(C(C)(O)C(=O)SCc3oc(=O)oc3C)(CC1)[S+]2[O-] (stereo not shown) [Compound 38] | 43 | 1.8 (≈ 2.1 µM) | – | – | – | MIC [3]: 3.7 µg/mL (≈ 4.32 µM); MIC ([4]; pH 7, read-out: MIC, KP): 1.8 µg/mL (≈ 2.1 µM); MIC ([5]; NO.10707, pH 7, read-out: MIC, BS): 1.8 µg/mL (≈ 2.1 µM)
COCCOCCOCC(=O)OC1/C=C(\C)CCC2(C(C)(O)C(=O)SCOC(=O)OCCN3CCCC3=O)CC(=O)N(C(C)c3nc(cs3)/C=C\C=C\C1=O)[S+]2[O-] (stereo not shown) [Compound 44] | – | – | – | – | – | response vs control in vivo at 2 mg/kg [1]: 43%
COCCOCCOCC(=O)OC1/C=C(\C)CCC2(C(C)(O)C(=O)SCOC(=O)OCCOCCOC)CC(=O)N(C(C)c3nc(cs3)/C=C\C=C\C1=O)[S+]2[O-] (stereo not shown) [Compound 45] | – | – | – | – | – | response vs control in vivo at 4 mg/kg [1]: 45%
COCCOCCOCC(=O)OC1/C=C(\C)CCC2(C(C)(O)C(=O)SCOC(=O)COCCOCCO)CC(=O)N(C(C)c3nc(cs3)/C=C\C=C\C1=O)[S+]2[O-] (stereo not shown) [Compound 47] | 40 | – | – | – | – | –
CC(=O)OCC1OC(OC2C=C(C)CCC3(CC(=O)NC(C)c4nc(cs4)C=CC=CC2=O)[S+]([O-])SC(=O)C3(C)O)C=CC1OC(C)=O (stereo not shown) [Compound 50] | – | 0.020 (≈ 0.0277 µM) | 0.02 (≈ 0.0277 µM) | 0.16 (≈ 0.221 µM) | 0.02 (≈ 0.0277 µM) | IC50 (HeLa S3 cells; HeLa S3, 72 hours, 37° C.): 3.5 nM; MIC (Escherichia coli ATCC 26; [9]): 0.16 µg/mL (≈ 0.221 µM)
CC(=O)OC[C@H]1OC(OC2/C=C(\C)CCC3(CC(=O)NC(C)c4nc(cs4)/C=C\C=C\C2=O)[S+]([O-])SC(=O)C3(C)O)C[C@@H](OC(C)=O)[C@@H]1OC(C)=O (stereo partly shown) [Compound 53] | – | 0.20 (≈ 0.255 µM) | 0.098 (≈ 0.125 µM) | 1.6 (≈ 2.04 µM) | 0.098 (≈ 0.125 µM) | IC50 (HeLa S3 cells; HeLa S3, 72 h): 16 nM; MIC (Escherichia coli ATCC 26; [7]): 25 µg/mL (≈ 31.9 µM)
CC(=O)O[C@@H]1C=CC(OC2/C=C(\C)CCC3(CC(=O)NC(C)c4nc(cs4)/C=C\C=C\C2=O)[S+]([O-])SC(=O)C3(C)O)O[C@H]1C (stereo partly shown) [Compound 57] | – | 0.13 (≈ 0.196 µM) | 0.13 (≈ 0.196 µM) | 0.26 (≈ 0.391 µM) | 0.033 (≈ 0.0496 µM) | IC50 (HeLa S3 cells; HeLa S3, 72 h): 16 nM; MIC (Escherichia coli ATCC 26; [7]): 0.52 µg/mL (≈ 0.782 µM)
CC(=O)O[C@H]1[C@H](C)OC(OC2/C=C(\C)CCC3(C(C)(O)C(=O)SCc4oc(=O)oc4C)CC(=O)N(C(C)c4nc(cs4)/C=C\C=C\C2=O)[S+]3[O-])C[C@@H]1OC(C)=O (stereo partly shown) [Compound 66] | – | – | – | – | – | response vs control in vivo at 4 mg/kg [1]: 47%; IC50 (HeLa S3 cells; HeLa S3, 72 hours, 37° C.): 6.1 nM
C/C1=C\C(OC2C=C[C@@H](O)[C@H](C)O2)C(=O)/C=C/C=C\c2csc(n2)C(C)N2C(=O)CC(C(C)(O)C(=O)SCc3oc(=O)oc3C)(CC1)[S+]2[O-] (stereo partly shown) [Compound 67] | 44 | – | – | – | – | –
CC(=O)O[C@@H]1C=CC(OC2/C=C(\C)CCC3(C(C)(O)C(=O)SCc4oc(=O)oc4C)CC(=O)N(C(C)c4nc(cs4)/C=C\C=C\C2=O)[S+]3[O-])O[C@H]1C (stereo partly shown) [Compound 68] | 50 | – | – | – | – | –
CC(=O)O[C@@H]1C=CC(OC2/C=C(\C)CCC3(C(C)(O)C(=O)SCc4oc(=O)oc4C)CC(=O)N(C(C)c4nc(cs4)/C=C\C=C\C2=O)[S+]3[O-])O[C@H]1C (stereo partly shown) [Compound 69] | – | – | – | – | – | IC50 (HeLa S3 cells; HeLa S3, 72 hours, 37° C.): 3.2 nM
